Among the test systems are HOP-62 NSCLC; MDA-MB-231 breast; HS 578T breast; HCT-15 colon; HL-60(TB) leukemia; MALME-3M melanoma; 786-0 renal; U251 CNS; LOX IMVI melanoma; HCC-2998 colon.
Assay in all cases: NCI anticancer screen, dose series, 48 h

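All cell lines were grown in 96-well plates and treated with compound for 48 hours. TGI marks complete inhibition of growth.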

In PubChem BioAssay (NCI) one finds TGI data, which are given here for 23 compounds.

`Cc1cc(NC(=O)NC(=O)c2ccccc2NC(=O)CN(C)C)ccc1Oc1ncc(Br)cn1`: the TGI with HOP-62 NSCLC is above 76.4 µM; in the test with MDA-MB-231 breast it was above 78.1 µM; with HS 578T breast it was above 23.9 µM; in the test with HCT-15 colon, above 100 µM; in the test with HL-60(TB) leukemia, 12.5 µM; in the test on MALME-3M melanoma, above 100 µM. In addition, the TGI is above 89.3 µM in the test with 786-0 renal, above 86.6 µM with U251 CNS, above 100 µM with LOX IMVI melanoma and 6.05 µM in the test on HCC-2998 colon.
With `COc1cc2c(cc1O)C(Cc1ccc(OCc3ccccc3)c(OCc3ccccc3)c1)N(C(=O)NCCc1ccccc1)CC2` (stereo not given), the TGI with HOP-62 NSCLC, with MDA-MB-231 breast, with HS 578T breast, in the test with HCT-15 colon, with HL-60(TB) leukemia and in the test with MALME-3M melanoma was above 100 µM in each case. Besides, the TGI with 786-0 renal, with U251 CNS, in the test with LOX IMVI melanoma and in the test on HCC-2998 colon was above 100 µM in each case.
In the case of `CN(C)c1cccc2c(S(=O)(=O)NCCN)cccc12`, the TGI in the test on HOP-62 NSCLC, in the test on MDA-MB-231 breast, in the test with HS 578T breast, in the test with HCT-15 colon, in the test on HL-60(TB) leukemia and in the test with MALME-3M melanoma was above 100 µM each time. Further, the TGI in the test on 786-0 renal, in the test with U251 CNS, in the test on LOX IMVI melanoma and in the test on HCC-2998 colon was above 100 µM in each case.
`BrC1(c2ccccc2)C[n+]2c(-c3ccccc3)cc(-c3ccccc3)cc2-c2ccccc21` (stereo not given): the TGI in the test on HOP-62 NSCLC amounted to 7.41 µM; in the test on MDA-MB-231 breast it was 1.63 µM; in the test with HS 578T breast, 0.872 µM; in the test on HCT-15 colon, 12 µM; in the test with HL-60(TB) leukemia, 0.538 µM; in the test with MALME-3M melanoma, 13.2 µM. The TGI in the test with 786-0 renal was found to be 13.4 µM; in the test on U251 CNS, 1.2 µM; with LOX IMVI melanoma it was 1.82 µM; in the test with HCC-2998 colon, 0.742 µM.
As to `COc1ccc(C2C(=O)c3ccc(OC)cc3OC2c2cccnc2)cc1` (stereo not given), the TGI with HOP-62 NSCLC, in the test on MDA-MB-231 breast, in the test with HS 578T breast, in the test on HCT-15 colon, in the test with HL-60(TB) leukemia and in the test with MALME-3M melanoma was above 100 µM each time. The TGI in the test on 786-0 renal, in the test on U251 CNS, in the test with LOX IMVI melanoma and with HCC-2998 colon was above 100 µM each time.
With `Cc1nnc(SCc2nc(C#N)c(C#N)nc2CSc2nnc(C)s2)s1`, the TGI in the test with HOP-62 NSCLC is 37.8 µM; with MDA-MB-231 breast it was 31.4 µM; in the test with HS 578T breast it was above 59.4 µM; in the test on HCT-15 colon, 26.4 µM; in the test with HL-60(TB) leukemia, 7.74 µM; in the test with MALME-3M melanoma, 13 µM. Also, the TGI is 28.8 µM with 786-0 renal, 37.5 µM in the test on U251 CNS, 23.3 µM with LOX IMVI melanoma and 30.4 µM with HCC-2998 colon.
As to `CCNC(=S)N/N=C(/C)c1cccc(/C(C)=N\NC(=S)NCC)n1`, the TGI was above 100 µM in the test on HOP-62 NSCLC; above 84.2 µM in the test with MDA-MB-231 breast; above 96.6 µM in the test on HS 578T breast; above 57 µM in the test on HCT-15 colon; 7.9 µM in the test on HL-60(TB) leukemia; above 44.6 µM in the test with MALME-3M melanoma. The TGI in the test with 786-0 renal is above 100 µM; in the test on U251 CNS, 58 µM; in the test on LOX IMVI melanoma, 35.8 µM; in the test with HCC-2998 colon, above 96.7 µM.
On to `CC(C)OC(=O)C(NC(=O)C(CC(=O)OCc1ccccc1)NC(=O)OCc1ccccc1)NC(=O)C1C(C)(C)CCC1(C)C` (stereo not given), for which the TGI is 18.7 µM with HOP-62 NSCLC; 7.82 µM in the test with MDA-MB-231 breast; 23.5 µM in the test with HS 578T breast; 30.7 µM in the test on HCT-15 colon; above 40.4 µM in the test on HL-60(TB) leukemia; 44.9 µM in the test with MALME-3M melanoma. For the same compound, the TGI is 5.3 µM with 786-0 renal, 4.68 µM in the test with U251 CNS, 11.6 µM in the test on LOX IMVI melanoma and above 56.5 µM with HCC-2998 colon.
Take `CC1(C)CCC[C@@]2(C)C1CC[C@@]1(CO)O[C@H](C3=CC(=O)OC3O)C[C@H]12` (stereo not given in full): the TGI in the test on HOP-62 NSCLC amounted to 19.3 µM; with MDA-MB-231 breast it was 36.1 µM; in the test on HS 578T breast, 38.4 µM; with HCT-15 colon it was 23.5 µM; with HL-60(TB) leukemia it was 4.31 µM; in the test with MALME-3M melanoma, 24.2 µM. Further, the TGI in the test with 786-0 renal was determined as 38.6 µM; with U251 CNS it was 28.5 µM; in the test on LOX IMVI melanoma, 3.42 µM; with HCC-2998 colon, 31.3 µM.
`O=C(O)[C@H]1NC[C@H]2C(Br)=NO[C@@H]12`: the TGI in the test on HOP-62 NSCLC, with MDA-MB-231 breast, in the test on HS 578T breast, with HCT-15 colon, in the test on HL-60(TB) leukemia and in the test with MALME-3M melanoma was above 100 µM throughout. The TGI with 786-0 renal, with U251 CNS, in the test on LOX IMVI melanoma and with HCC-2998 colon was above 100 µM each time.
In the case of `CC1=NC(=N)N=C(C)C1N=Nc1ccc2nc(C)[nH]c2c1` (stereo not given), the TGI with HOP-62 NSCLC, with MDA-MB-231 breast, with HS 578T breast, in the test with HCT-15 colon, with HL-60(TB) leukemia and in the test with MALME-3M melanoma was above 100 µM throughout. Also, the TGI in the test with 786-0 renal, with U251 CNS, with LOX IMVI melanoma and in the test on HCC-2998 colon was above 100 µM each time.
For the compound `C[C@H]1CCC/C=C/[C@@H]2C[C@H](OC3OC(CO)C(O)C(O)C3O)C[C@H]2[C@H](O)/C=C/C(=O)O1` (stereo not given in full), the TGI is above 100 µM in the test with HOP-62 NSCLC; 42.9 µM with MDA-MB-231 breast; above 100 µM with HS 578T breast; above 100 µM in the test on HCT-15 colon; above 100 µM in the test with HL-60(TB) leukemia; 33.1 µM with MALME-3M melanoma. Moreover, the TGI in the test on 786-0 renal, in the test with U251 CNS, in the test on LOX IMVI melanoma and in the test with HCC-2998 colon was above 100 µM throughout.
On to `O=C1/C(=C\c2cccc(Oc3ccccc3)c2)SC(c2ccccc2)N1c1cc(Cl)ccc1Cl` (stereo not given), for which the TGI was above 100 µM with HOP-62 NSCLC; above 100 µM in the test on MDA-MB-231 breast; 75.9 µM with HS 578T breast; above 100 µM with HCT-15 colon; 48.1 µM in the test on HL-60(TB) leukemia; 89.7 µM in the test on MALME-3M melanoma. For the same compound, the TGI in the test with 786-0 renal is 76.5 µM; in the test on U251 CNS, above 100 µM; with LOX IMVI melanoma it was 38.2 µM; with HCC-2998 colon it was above 100 µM.
Consider `O=c1[nH]c2c(Nc3c4ccccc4nc4ccccc34)c([N+](=O)[O-])c(Nc3c4ccccc4nc4ccccc34)c([N+](=O)[O-])c2[nH]1`, for which the TGI in the test on HOP-62 NSCLC is 20.2 µM; in the test on MDA-MB-231 breast, 4.92 µM; with HS 578T breast, 7.12 µM; in the test on HCT-15 colon, 6.98 µM; in the test on HL-60(TB) leukemia it was above 23.7 µM; in the test with MALME-3M melanoma, 3.33 µM. Besides, the TGI was above 28.4 µM with 786-0 renal, 8.35 µM in the test with U251 CNS, 7.79 µM in the test with LOX IMVI melanoma and 3.5 µM in the test with HCC-2998 colon.
Regarding `CC1(C)C(=O)/C(=C/c2ccccc2)C(C)(C)C1(C)C`, the TGI was 98.9 µM in the test on HOP-62 NSCLC; above 100 µM in the test with MDA-MB-231 breast; above 100 µM in the test on HS 578T breast; above 100 µM with HCT-15 colon; 46.7 µM in the test with HL-60(TB) leukemia; above 100 µM in the test with MALME-3M melanoma. For the same compound, the TGI with 786-0 renal, in the test on U251 CNS, with LOX IMVI melanoma and in the test with HCC-2998 colon was above 100 µM in each case.
`O=C(O)CCCc1ccc2c(c1)C(C(=O)O)CC2` (stereo not given): the TGI in the test on HOP-62 NSCLC, with MDA-MB-231 breast, in the test with HS 578T breast, with HCT-15 colon, in the test on HL-60(TB) leukemia and in the test on MALME-3M melanoma was above 100 µM each time. The TGI in the test on 786-0 renal, in the test on U251 CNS, with LOX IMVI melanoma and in the test on HCC-2998 colon was above 100 µM in each case.
For `O=S(Nc1ccccc1)c1ccc(Cl)cc1` (stereo not given), the TGI in the test on HOP-62 NSCLC, in the test with MDA-MB-231 breast, in the test on HS 578T breast, in the test on HCT-15 colon, in the test on HL-60(TB) leukemia and with MALME-3M melanoma was above 100 µM each time. The TGI in the test with 786-0 renal, with U251 CNS, in the test with LOX IMVI melanoma and with HCC-2998 colon was above 100 µM throughout.
Turning to `Cn1c(CO)ccc1-c1ccc(-c2ccc(CO)[se]2)[se]1`, the TGI in the test on HOP-62 NSCLC is 40.8 µM; in the test with MDA-MB-231 breast it was above 67.2 µM; in the test on HS 578T breast it was above 100 µM; in the test on HCT-15 colon, above 70.6 µM; with HL-60(TB) leukemia, above 59.1 µM; in the test on MALME-3M melanoma it was 17.7 µM. The TGI in the test with 786-0 renal is above 76 µM; in the test with U251 CNS, 24.4 µM; in the test on LOX IMVI melanoma, 41.2 µM; in the test with HCC-2998 colon it was 22.5 µM.
`CCc1c(O)nc(Nc2nc3ccccc3[nH]2)[nH]c1=O`: the TGI in the test on HOP-62 NSCLC, in the test on MDA-MB-231 breast, in the test with HS 578T breast, with HCT-15 colon, in the test on HL-60(TB) leukemia and with MALME-3M melanoma was above 100 µM throughout. The TGI in the test with 786-0 renal, in the test with U251 CNS, with LOX IMVI melanoma and with HCC-2998 colon was above 100 µM throughout.
With `CC(C)Oc1cccc(N2C(CCc3c[nH]c4ccc(Br)cc34)=NS(=O)(=O)c3cnccc32)c1`, the TGI with HOP-62 NSCLC, with MDA-MB-231 breast, in the test with HS 578T breast, in the test with HCT-15 colon, in the test on HL-60(TB) leukemia and in the test with MALME-3M melanoma was above 100 µM throughout. Besides, the TGI in the test on 786-0 renal, in the test with U251 CNS, in the test with LOX IMVI melanoma and in the test with HCC-2998 colon was above 100 µM throughout.
Regarding `Cc1ccc(S(=O)(=O)N/N=c2/sc3ccccc3n2C)cc1`, the TGI in the test with HOP-62 NSCLC, in the test with MDA-MB-231 breast, with HS 578T breast, in the test on HCT-15 colon, in the test with HL-60(TB) leukemia and in the test with MALME-3M melanoma was above 100 µM in each case. The TGI in the test with 786-0 renal, with U251 CNS, with LOX IMVI melanoma and with HCC-2998 colon was above 100 µM in each case.
Take `[N-]=[N+]=CC(=O)C1CCN(c2ccccc2)C1=O` (stereo not given): the TGI with HOP-62 NSCLC, in the test on MDA-MB-231 breast, in the test on HS 578T breast, in the test with HCT-15 colon, in the test with HL-60(TB) leukemia and in the test on MALME-3M melanoma was above 10 µM each time. Besides, the TGI in the test on 786-0 renal, in the test on U251 CNS, with LOX IMVI melanoma and in the test on HCC-2998 colon was above 10 µM each time.
Regarding `C[n+]1c2ccccc2n2c3ccccc3c(NCCCn3ccnc3)c(C#N)c21`, the TGI in the test on HOP-62 NSCLC was above 27 µM; in the test on MDA-MB-231 breast it was 9.18 µM; with HS 578T breast, 6.78 µM; in the test with HCT-15 colon it was 12 µM; in the test on HL-60(TB) leukemia, 20.3 µM; in the test on MALME-3M melanoma, 4.5 µM. The TGI was 10.6 µM with 786-0 renal, above 33 µM in the test on U251 CNS, 2.51 µM in the test with LOX IMVI melanoma and 3.1 µM in the test on HCC-2998 colon.
